Experimental data reported in US20060281771A1, “SYNERGISTIC MODULATION OF FLT3 KINASE USING AMINOQUINOLINE AND AMINOQUINAZOLINE KINASE MODULATORS” (priority 2005, published 2006).

Experiments:
[1] = target: T1, wild-type FLT3 phosphorylation in Baf3 FLT3 cells (Homo sapiens, UniProt P36888); test: Cell-based FLT3 receptor ELISA; details: FLT ligand-induced FLT3 phosphorylation
T1 construct: host or cells: Baf3 (murine B cell lymphoma line)
T1 sequence (P36888 27-993): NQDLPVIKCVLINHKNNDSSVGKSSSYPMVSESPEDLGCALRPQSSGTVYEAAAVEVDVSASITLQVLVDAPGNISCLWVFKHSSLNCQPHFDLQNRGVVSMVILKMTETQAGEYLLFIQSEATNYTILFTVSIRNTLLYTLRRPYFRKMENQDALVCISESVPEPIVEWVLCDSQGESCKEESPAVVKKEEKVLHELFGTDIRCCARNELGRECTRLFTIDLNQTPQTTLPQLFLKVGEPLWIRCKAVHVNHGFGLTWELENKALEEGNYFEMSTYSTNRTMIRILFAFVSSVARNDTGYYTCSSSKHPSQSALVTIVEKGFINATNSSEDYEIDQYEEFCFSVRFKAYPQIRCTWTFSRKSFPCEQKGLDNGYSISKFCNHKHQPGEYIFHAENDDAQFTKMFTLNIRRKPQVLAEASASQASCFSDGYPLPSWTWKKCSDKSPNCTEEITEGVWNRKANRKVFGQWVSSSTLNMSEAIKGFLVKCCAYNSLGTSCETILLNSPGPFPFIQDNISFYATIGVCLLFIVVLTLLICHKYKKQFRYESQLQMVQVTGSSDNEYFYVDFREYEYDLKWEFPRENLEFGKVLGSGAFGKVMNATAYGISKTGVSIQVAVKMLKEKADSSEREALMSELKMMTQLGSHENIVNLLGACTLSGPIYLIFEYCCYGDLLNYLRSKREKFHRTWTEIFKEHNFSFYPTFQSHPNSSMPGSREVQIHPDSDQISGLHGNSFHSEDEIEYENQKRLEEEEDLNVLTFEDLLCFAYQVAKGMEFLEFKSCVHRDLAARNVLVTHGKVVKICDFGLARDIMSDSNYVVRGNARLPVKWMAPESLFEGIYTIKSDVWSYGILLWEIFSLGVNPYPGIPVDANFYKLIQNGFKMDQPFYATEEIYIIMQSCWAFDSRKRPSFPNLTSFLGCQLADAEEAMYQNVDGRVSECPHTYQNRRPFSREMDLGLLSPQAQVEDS
Procedure: Specific cellular inhibition of FLT ligand-induced wild-type FLT3 phosphorylation was measured in the following manner: Baf3 FLT3 cells overexpressing the FLT3 receptor were obtained from Dr. Michael Heinrich (Oregon Health and Sciences University). The Baf3 FLT3 cell lines were created by stable transfection of parental Baf3 cells (a murine B cell lymphoma line dependent on the cytokine IL-3 for growth) with wild-type FLT3. Cells were selected for their ability to grow in the absence of IL-3 and in the presence of FLT3 ligand.
Baf3 cells were maintained in RPMI 1640 with 10% FBS, penn/strep and 10 ng/ml FLT ligand at 37° C., 5% CO2. To measure direct inhibition of the wild-type FLT3 receptor activity and phosphorylation a sandwich ELISA method was developed similar to those developed for other RTKs (see Sadick, M D, Sliwkowski, M X, Nuijens, A, Bald, L, Chiang, N, Lofgren, J A, Wong W L T. Analysis of Heregulin-Induced ErbB2 Phosphorylation with a High-Throughput Kinase Receptor Activation Enzyme-Linked Immunsorbent Assay, Analytical Biochemistry. 1996; 235:207-214 and Baumann C A, Zeng L, Donatelli R R, Maroney A C. Development of a quantitative, high-throughput cell-based enzyme-linked immunosorbent assay for detection of colony-stimulating factor-1 receptor tyrosine kinase inhibitors. J Biochem Biophys Methods. 2004; 60:69-79.). 200 μL of Baf3FLT3 cells (1×10^6/mL) were plated in 96 well dishes in RPMI 1640 with 0.5% serum and 0.01 ng/mL IL-3 for 16 hours prior to 1 hour compound or DMSO vehicle incubation. Cells were treated with 100 ng/mL Flt ligand (R&D Systems Cat# 308-FK) for 10 min. at 37° C. Cells were pelleted, washed and lysed in 100 ul lysis buffer (50 mM Hepes, 150 mM NaCl, 10% Glycerol, 1% Triton-X-100, 10 mM NaF, 1 mM EDTA, 1.5 mM MgCl2, 10 mM NaPyrophosphate) supplemented with phosphatase (Sigma Cat# P2850) and protease inhibitors (Sigma Cat #P8340). Lysates were cleared by centrifugation at 1000×g for 5 minutes at 4° C. Cell lysates were transferred to white wall 96 well microtiter (Costar #9018) plates coated with 50 ng/well anti-FLT3 antibody (Santa Cruz Cat# sc-480) and blocked with SeaBlock reagent (Pierce Cat#37527). Lysates were incubated at 4° C. for 2 hours. Plates were washed 3× with 200 ul/well PBS/0.1% Triton-X-100. Plates were then incubated with 1:8000 dilution of HRP-conjugated anti-phosphotyrosine antibody (Clone 4G10, Upstate Biotechnology Cat#16-105) for 1 hour at room temperature. Plates were washed 3× with 200 ul/well PBS/0.1% Triton-X-100. Signal detection with Super Signal Pico reagent (Pierce Cat#37070) was done according to manufacturer's instruction with a Berthold microplate luminometer. All data points are an average of triplicate samples. […] Inhibition and IC50 data analysis was done with GraphPad Prism using a non-linear regression fit with a multiparamater, sigmoidal dose-response (variable slope) equation.

MV4-11 cells = test: Inhibition of MV4-11 cell proliferation (CellTiterGlo, 72 h); format: cell-based; details: Homo sapiens; 72 h growth inhibition
Procedure: To assess the cellular potency of the FLT3 inhibitors of Formula I′, FLT3 specific growth inhibition was measured in the leukemic cell line MV4-11 (ATCC Number: CRL-9591). […] MV4-11 cells cannot grow and survive without active FLT3ITD.
To measure proliferation inhibition by test compounds, the luciferase based CellTiterGlo reagent (Promega), which quantifies total cell number based on total cellular ATP concentration, was used. Cells are plated at 10,000 cells per well in 100 ul of in RPMI media containing penn/strep, 10% FBS and 1 ng/ml GM-CSF or 1 ng/ml IL-3 for MV4-11 and Baf3 cells respectively.
Compound dilutions or 0.1% DMSO (vehicle control) are added to cells and the cells are allowed to grow for 72 hours at standard cell growth conditions (37° C., 5% CO2). For activity measurements in MV4-11 cells grown in 50% plasma, cells were plated at 10,000 cells per well in a 1:1 mixture of growth media and human plasma (final volume of 100 μL). To measure total cell growth an equal volume of CellTiterGlo reagent was added to each well, according to the manufacturer's instructions, and luminescence was quantified. Total cell growth was quantified as the difference in luminescent counts (relative light units, RLU) of cell number at Day 0 compared to total cell number at Day 3 (72 hours of growth and/or compound treatment). One hundred percent inhibition of growth is defined as an RLU equivalent to the Day 0 reading. Zero percent inhibition was defined as the RLU signal for the DMSO vehicle control at Day 3 of growth. All data points are an average of triplicate samples. […] Inhibition and IC50 data analysis was done with GraphPad Prism using a non-linear regression fit with a multiparamater, sigmoidal dose-response (variable slope) equation.
MV4-11 cells express the FLT3 internal tandem duplication mutation, and thus are entirely dependent upon FLT3 activity for growth. […] In contrast, the Baf3 cell proliferation is driven by the cytokine IL-3 and thus are used as a non-specific toxicity control for test compounds.

IC50 [1] [nM]	IC50 (MV4-11 cells) [nM]	SMILES
82	1700	COc1cc2ncnc(N3CCC(COC(=O)Nc4ccc(C(C)C)cc4)CC3)c2cc1OC [Compound 22, (4-Isopropyl-phenyl)-carbamic acid 1-(6,7-dimethoxy-quinazolin-4-yl)-piperidin-4-ylmethyl ester]
6600	830	COc1cc2ncnc(N3CCC(NC(=O)Nc4ccc(N(C)C)cc4)C3)c2cc1OC (stereo not drawn) [Compound 52, 1-[1-(6,7-Dimethoxy-quinazolin-4-yl)-pyrrolidin-3-yl]-3-(4-dimethylamino-phenyl)-urea]
420	560	COc1cc2ncnc(N3CCC(OC(=O)Nc4ccc(OC5CCCC5)cc4)CC3)c2cc1OC [Compound 55, (4-Cyclopentyloxy-phenyl)-carbamic acid 1-(6,7-dimethoxy-quinazolin-4-yl)-piperidin-4-yl ester]
46	172	COc1cc2ncnc(N3CCCC(COC(=O)Nc4ccc(OC5CCCC5)cc4)C3)c2cc1OC (stereo not drawn) [Compound 57, (4-Cyclopentyloxy-phenyl)-carbamic acid 1-(6,7-dimethoxy-quinazolin-4-yl)-piperidin-3-ylmethyl ester]
180	7	COc1cc2ncnc(N3CCC(NC(=O)Nc4ccc(OC(C)C)cc4)CC3)c2cc1OC [Compound 58, 1-[1-(6,7-Dimethoxy-quinazolin-4-yl)-piperidin-4-yl]-3-(4-isopropoxy-phenyl)-urea]
43	410	COc1cc2ncnc(N3CCC(NC(=O)Nc4ccc(N5CCOCC5)cc4)CC3)c2cc1OC [Compound 59, 1-[1-(6,7-Dimethoxy-quinazolin-4-yl)-piperidin-4-yl]-3-(4-morpholin-4-yl-phenyl)-urea]
18	528	COc1cc2ncnc(N3CCC(NC(=O)Nc4ccc(N5CCCC5)cc4)CC3)c2cc1OC [Compound 60, 1-[1-(6,7-Dimethoxy-quinazolin-4-yl)-piperidin-4-yl]-3-(4-pyrrolidin-1-yl-phenyl)-urea]
16	941	COc1cc2ncnc(N3CCC(NC(=O)Nc4ccc(N(C)C)cc4)CC3)c2cc1OC [Compound 62, 1-[1-(6,7-Dimethoxy-quinazolin-4-yl)-piperidin-4-yl]-3-(4-dimethylamino-phenyl)-urea]
20	502	CC(C)c1ccc(NC(=O)NC2CCN(c3ncnc4ccccc34)CC2)cc1 [Compound 63, 1-(4-Isopropyl-phenyl)-3-(1-quinazolin-4-yl-piperidin-4-yl)-urea]
11	16	COc1ccc2ncnc(N3CCC(NC(=O)Nc4ccc(C(C)C)cc4)CC3)c2c1 [Compound 64, 1-(4-Isopropyl-phenyl)-3-[1-(6-methoxy-quinazolin-4-yl)-piperidin-4-yl]-urea]
178	321	COc1ccc2c(N3CCC(NC(=O)Nc4ccc(C(C)C)cc4)CC3)ncnc2c1 [Compound 65, 1-(4-Isopropyl-phenyl)-3-[1-(7-methoxy-quinazolin-4-yl)-piperidin-4-yl]-urea]
1	1	COc1cc2ncnc(N3CCC(NC(=O)Nc4ccc(C(C)C)cc4)CC3)c2cc1OC [Compound 66, 1-[1-(6,7-Dimethoxy-quinazolin-4-yl)-piperidin-4-yl]-3-(4-isopropyl-phenyl)-urea]
1400	470	COc1cc2ncnc(N3CCC(NC(=O)Nc4ccc(OC5CCCC5)cc4)CC3)c2cc1OC [Compound 67, 1-(4-Cyclopentyloxy-phenyl)-3-[1-(6,7-dimethoxy-quinazolin-4-yl)-piperidin-4-yl]-urea]
16	134	COc1cc2ncnc(N3CCC(NC(=O)Nc4ccc(N5CCCC5)nc4)CC3)c2cc1OC [Compound 68, 1-[1-(6,7-Dimethoxy-quinazolin-4-yl)-piperidin-4-yl]-3-(6-pyrrolidin-1-yl-pyridin-3-yl)-urea]
< 1	128	CC(C)c1ccc(NC(=O)NC2CCN(c3ncnc4cc(F)ccc34)C2)cc1 (stereo not drawn) [Compound 69, 1-[1-(7-Fluoro-quinazolin-4-yl)-pyrrolidin-3-yl]-3-(4-isopropyl-phenyl)-urea]
80	21	CC(C)c1ccc(NC(=O)NC2CCN(c3ncnc4cc(OCCN5CCCC5=O)ccc34)C2)cc1 (stereo not drawn) [Compound 70, 1-(4-Isopropyl-phenyl)-3-(1-{7-[2-(2-oxo-pyrrolidin-1-yl)-ethoxy]-quinazolin-4-yl}-pyrrolidin-3-yl)-urea]
1	1	COCCOc1ccc2c(N3CCC(NC(=O)Nc4ccc(C(C)C)cc4)C3)ncnc2c1 (stereo not drawn) [Compound 71, 1-(4-Isopropyl-phenyl)-3-{1-[7-(2-methoxy-ethoxy)-quinazolin-4-yl]-pyrrolidin-3-yl}-urea]
30	245	CC(C)c1ccc(NC(=O)NC2CCN(c3ncnc4cc(F)ccc34)CC2)cc1 [Compound 72, 1-[1-(7-Fluoro-quinazolin-4-yl)-piperidin-4-yl]-3-(4-isopropyl-phenyl)-urea]
